# Results from patent US10399931B2, “Octahydroanthracene compound, preparation method and application thereof” (SHANDONG XINHUA PHARMACEUTICAL CO., LTD., priority 2016, dated 2019).
# Assays:
# Assay type in all cases: in vivo
# [1] = test system: APP/PS1 double transgenic AD model mice; experiment: β-amyloid deposition in cerebral cortex and hippocampus of APP/PS1 mice
# Protocol: The drugs were administered three days after the adaptive feeding. Peanut oil was used as the solvent. […] On the 6th to 9th day after the administration, the new object identification test was performed. On the 10th day, the Y-maze test was performed. On the 11th to 15th day, the Morris water maze test was performed to determine the improvement of learning and memory. The administration of the drugs was continued during the behavioral experiment until the animals were sacrificed (16th day).
# After the behavioral experiment, the mice were anesthetized with an intraperitoneal injection of 3.5% chloral hydrate 3.5% (about […] for each mouse). Then the back of the mouse was fixed on the operating table and the chest was open to expose the heart. A perfusion needle was inserted into the left ventricle from the apex of the heart, while the right atrial appendage cut a small opening. First, perfusion was performed with about 200 ml saline. When the tail of the mouse was cut to find no blood, 300 ml 4% paraformaldehyde buffer (0.1 mol/L) at 4° C. was used to perfuse until the body of the mouse was stiff. The mouse was then decapitated, and the whole brain was obtained and fixed in 4% paraformaldehyde at 4° C. After 24 h, the brain was embedded in conventional paraffin and coronally sectioned to obtain the tissue sections with a thickness of 5 μm for immunohistochemical staining. […]
# APP/PS1 mice = experiment: Transmission electron microscopy of hippocampal CA1 neurons and synapses
# SYP, PSD95 and GAP43 = experiment: Western blot of synaptic-related proteins in APP/PS1 mice
# Protocol: After the behavioral experiment, the animals were anesthetized with an intraperitoneal injection of 3.5% chloral hydrate and cut off the heads quickly to take out the brains. The hippocampus and cortex of the brain were separated on ice, and then weighed and quickly frozen with liquid nitrogen, placed in a refrigerator at −80° C. for standby application.
# The tissue lysate (5 μL PMSF protease inhibitor per mL of lysate) was added to the frozen brain tissue at a ratio of […] (6 mL/g tissue), and ultrasonically homogenized in an ice bath. After homogenization, the tissue homogenate was placed in crushed ice for 30 min, and then centrifuged at 12,000×g for 20 min at 4° C. The supernatant (about 200 μL) was taken and stored in a refrigerator at −80° C. for later use. A portion of the supernatant was taken for protein quantification.
# According to the kit instruction, BCA working reagent was prepared by mixing reagent A with reagent B at a ratio of 50:1 thoroughly. The BCA working reagent was freshly prepared for use at room temperature with a stable period of 24 h. […] (5) The absorbance of the protein (at a wavelength of 540 nm) was determined by a microplate reader. (6) The standard curve was made by Excel, and the concentration of the detected protein was calculated based on the standard curve. […]
smiles,measurement,setting,value
"CC1(C)CCC(C)(C)c2c1cc1c(c2NC(=O)c2ccc(NC(=O)NCCN)cc2)C(C)(C)CCC1(C)C [OAB-14, 1-(2-amino) ethyl-3-{4-[(1,1,4,4,5,5,8,8-octamethyl-1,2,3,4,5,6,7,8-octahydro-9-anthryl)carbamoyl]phenyl} urea]",Reduction of the deposition of β-amyloid protein in cerebral cortex and hippocampus,"[1]; 200 mg/kg, continuous intragastric administration 14 days, 8-month-old APP/PS1 mice",67.4%
same,Dose-effect relationship of the reduction of β-amyloid deposition,"[1]; dose range 50-200 mg/kg, intragastric, 14 days",good dose-effect relationship
same,Synaptic ultrastructure of the hippocampus (TEM),APP/PS1 mice; 100 mg/kg group,significantly improved
same,Synaptic ultrastructure of the hippocampus (TEM),APP/PS1 mice; 200 mg/kg group,significantly improved
same,Ultrastructure of hippocampal CA1 neurons (TEM),"APP/PS1 mice; dose-dependent, especially 200 mg/kg group",significantly improved
same,"Expression of synaptic-related proteins SYP, PSD95 and GAP43","SYP, PSD95 and GAP43; 100 mg/kg group",significantly increased
same,"Expression of synaptic-related proteins SYP, PSD95 and GAP43","SYP, PSD95 and GAP43; 200 mg/kg group",significantly increased
